Experimental data published in US7947704B2, “2,4,6-phenyl-substituted cyclic ketoenols” (Bayer CropScience AG, priority 2004, dated 2011).

Tests used:
Assay type in all cases: in vivo
Summer barley = test: Herbicidal action and safener action, post-emergence, container trials with cereal
Experimental: (§1) Herbicidal Action and Safener Action, Pre-emergence or Post-emergence
(§2) Seeds of rhizome pieces of monocotyledonous and dicotyledonous harmful plants and of crop plants are placed into sandy loam in pots made of peat, covered with soil and cultivated in a greenhouse under growth conditions. In the pre-emergence application, safener and herbicide are applied after sowing, the post-emergence treatment is carried out about two to three weeks after sowing, at the three-leaf stage of the test plants. The herbicide/safener active compound combinations according to the invention, formulated as emulsion concentrates, and in parallel experiments the correspondingly formulated individual active compounds are, at various dosages at a water application rate of 300 l/ha (converted), sprayed onto the surface of the soil when applied by the pre-emergence method and onto the green parts of the plants when applied by the post-emergence method. Pre-emergence evaluation is carried out after 2-4 weeks, post-emergence evaluation is carried out after 1-3 weeks. During this time, the test plants are kept in a greenhouse under optimum growth conditions. The effect of the preparation is scored visually in comparison to untreated controls.
(§3) Container trials with cereal in the greenhouse.
(§4) Safener and herbicide were applied successively to the plants by the post-emergence method (application rates: see Tables)

Summer wheat = test: as above
Experimental: as §1, §2, §3, §4

Winter wheat = test: as above
Experimental: as §1, §2, §3, §4

Maize [1] = test: Herbicidal action and safener action, safener and herbicide applied successively pre-emergence
Experimental: as §1, §2
Safener and herbicide applied successively by the pre-emergence method.

Maize [2] = test: Safener action after seed dressing, herbicide pre-emergence; details: seed not safener-dressed
Experimental: Safener Action after Seed Dressing
The number of crop plant seeds needed for each safener application rate was calculated. Based on the weight of 100 seeds, sufficient seeds were weighed into screw top glass bottles approximately twice the volume of the seeds.
The prospective safeners were formulated as wettable powders or water-dispersible granules. These formulations were weighed out so that the required application rates (g of a.i./kg of seed) were obtained. The samples were added to the seeds in the bottles, followed by sufficient water to produce a seed dressing. The bottles were closed and then placed in an overhead shaker (set at medium speed for a period of up to one hour) so that the seeds were evenly coated with the seed dressing. The bottles were opened and the seeds were used in the pre-emergence tests.
Pre-emergence Application of Herbicides
The safener-treated seeds and untreated seeds as controls were sown in a sandy loam soil in round pots having a diameter of 7 to 13 cm and covered with approximately 0.5 to 1 cm of a 1:1 mix of sandy loam soil and sand. The herbicides, as liquid (for example emulsifiable concentrates) or dry (for example wettable powders) formulations, were diluted to the required concentrations using deionized water and applied to the soil surface using a track sprayer calibrated to deliver 300 liters of spray solution per hectare.
The pots were placed under good growing conditions in a greenhouse, and a visual assessment of the herbicidal effects was made 3 to 4 weeks after the application of the herbicide. The assessment was on a percentage basis in comparison to untreated control plants (0%=no damage, 100%=complete kill).
Herbicide application by the pre-emergence method, safener-dressed: […]

Myzus persicae = test: Myzus Test (spray treatment); details: 500 g/ha; after 5 d
Meloidogyne incognita = test: Meloidogyne Test (gall formation on lettuce roots); details: 20 ppm; after 14 d
Experimental: To produce a suitable preparation of active compound, 1 part by weight of active compound is mixed with the stated amounts of solvent and emulsifier, and the concentrate is diluted with water to the desired concentration.
Containers are filled with sand, solution of active compound, Meloidogyne incognita egg/larvae suspension and lettuce seeds. The lettuce seeds germinate and the plants develop. On the roots, galls are formed.
After the desired period of time, the nematicidal action is determined in % by gall formation. 100% means that no galls were found; 0% means that the number of galls on the treated plants corresponds to that of the untreated control.

Lolium = test: Herbicidal pre-emergence action; details: 320 g of a.i./ha
Excerpt: (§5) 1. Herbicidal Pre-emergence Action
(§6) Seeds of monocotyledonous and dicotyledonous weed and crop plants are placed into sandy loam in wood fibre pots and covered with soil. The test compounds, formulated in the form of wettable powders (WP), are then, in various dosages as aqueous suspension with a water application rate of 600 l/ha (converted), with 0.2% of wetting agent added, applied to the surface of the covering soil.
(§7) After the treatment, the pots are placed in a greenhouse and kept under good growth conditions for the test plants. The visual assessment of the emergence damage on the test plants is carried out after a trial period of 3 weeks by comparison with untreated controls (herbicidal effect in percent (%): 100% effect=the plants have died, 0% effect=like control plants).

Setaria = test: Herbicidal pre-emergence action; details: 320 g of a.i./ha
Excerpt: as §5, §6, §7

[3] = application rate 25 g of a.i./ha
[4] = application rate 50 g of a.i./ha
[5] = application rate 100 g of a.i./ha
[6] = herbicide pre-emergence 25 g of a.i./ha
[7] = herbicide pre-emergence 50 g of a.i./ha

`CCCOc1cc(C)cc(Cl)c1C1=C(O)C2(CCC(OC)CC2)NC1=O` (single isomer, unassigned) [Example I-1-a-4] was tested, and the “Summer barley (%) observed damage” value (Summer barley; [3]) was 0%, the “Summer barley (%) observed damage” value (Summer barley; [4]) was 10% and the “Summer barley (%) observed damage” value (Summer barley; [5]) was 20%. The “Summer wheat (%) damage” value (Summer wheat; [3]) was 20%, the “Summer wheat (%) damage” value (Summer wheat; [4]) was 45% and the “Summer wheat (%) damage” value (Summer wheat; [5]) was 60%. The “Winter wheat (%) observed damage” value (Winter wheat; [3]) was 10%, the “Winter wheat (%) observed damage” value (Winter wheat; [4]) was 30% and the “Winter wheat (%) observed damage” value (Winter wheat; [5]) was 50%. The “Maize (%) damage” value (Maize [1]; [3]) was 10%, the “Maize (%) damage” value (Maize [1]; [4]) was 20% and the “Maize (%) damage” value (Maize [2]; [6]) was 10%. For the same compound, the “Maize (%) damage” value (Maize [2]; [7]) was 20%.
For `CCOC(=O)OC1=C(c2c(Cl)cc(C)cc2OC)C(=O)OC12CCC(OC)CC2` (mixture of isomers) [Ex. I-2-c-2], the “kill rate against Myzus persicae” value (Myzus persicae) was 100%.
For `CCOc1cc(C)cc(Cl)c1C1=C(O)C2(CCC(OC)CC2)NC1=O` (single isomer, unassigned) [Example I-1-a-5], the “Summer barley (%) observed damage” value (Summer barley; [3]) was 10%, the “Summer barley (%) observed damage” value (Summer barley; [4]) was 20% and the “Summer barley (%) observed damage” value (Summer barley; [5]) was 20%. For the same compound, the “Summer wheat (%) damage” value (Summer wheat; [3]) was 20%, the “Summer wheat (%) damage” value (Summer wheat; [4]) was 50% and the “Summer wheat (%) damage” value (Summer wheat; [5]) was 60%. For the same compound, the “Winter wheat (%) observed damage” value (Winter wheat; [3]) was 10%, the “Winter wheat (%) observed damage” value (Winter wheat; [4]) was 30% and the “Winter wheat (%) observed damage” value (Winter wheat; [5]) was 60%. The “Maize (%) damage” value (Maize [2]; [6]) was 20% and the “Maize (%) damage” value (Maize [2]; [7]) was 20%.
For `COc1cc(C)cc(Cl)c1C1=C(O)C2(CCOCC2)NC1=O` [Ex. I-1-a-1], the “kill rate against Meloidogyne” value (Meloidogyne incognita) was 100%.
In the case of `CCOC(=O)OC1=C(c2c(Cl)cc(C)cc2OC)C(=O)NC12CCC(OC)CC2` (stereo not drawn) [Example I-1-c-1], the “Summer barley (%) observed damage” value (Summer barley; [3]) is reported as 10%, the “Summer barley (%) observed damage” value (Summer barley; [4]) is reported as 30% and the “Summer barley (%) observed damage” value (Summer barley; [5]) is reported as 60%. The “Winter wheat (%) observed damage” value (Winter wheat; [3]) was 10%, the “Winter wheat (%) observed damage” value (Winter wheat; [4]) was 30% and the “Maize (%) damage” value (Maize [2]; [6]) was 35%.
`COc1cc(C)cc(Cl)c1C1=C(O)C2(CCC(OC)CC2)NC1=O` (single isomer, unassigned) [Ex. I-1-a-3] was tested, and the “kill rate against Meloidogyne” value (Meloidogyne incognita) was 100% and the “kill rate against Myzus persicae” value (Myzus persicae) was 100%.
In the case of `COc1cc(C)cc(Cl)c1C1=C(OC(=O)C(C)C)C2(CCC(OC)CC2)NC1=O` (stereo not drawn) [Example I-1-b-1], the “Summer barley (%) observed damage” value (Summer barley; [3]) is reported as 30%, the “Summer barley (%) observed damage” value (Summer barley; [4]) is reported as 40% and the “Summer barley (%) observed damage” value (Summer barley; [5]) is reported as 55%.
In the case of `COc1cc(C)cc(Cl)c1C1=C(O)C(C)(C)NC1=O` [Ex. I-1-a-2], the “kill rate against Lolium” value (Lolium) is reported as at least 80% and the “kill rate against Setaria” value (Setaria) is reported as at least 80%.
With `COc1cc(C)cc(Cl)c1C1=C(OC(=O)C(C)C)C2(CCCC2)OC1=O` [Ex. I-2-b-1] the “kill rate against Myzus persicae” value (Myzus persicae) was 100%.
With `COc1cc(C)cc(Cl)c1C1=C(O)C2(CCC(OC)CC2)OC1=O` (stereo not drawn) [Ex. I-2-a-2] the “kill rate against Myzus persicae” value (Myzus persicae) was 100%.
With `COc1cc(C)cc(Cl)c1C1=C(O)C2(CCCC2)OC1=O` [Ex. I-2-a-1] the “kill rate against Myzus persicae” value (Myzus persicae) was 100%.
For `COc1cc(C)cc(Cl)c1C1=C(OC(=O)C(C)C)C2(CCOCC2)OC1=O` [Ex. I-2-b-3], the “kill rate against Myzus persicae” value (Myzus persicae) was 100%.
In the case of `CCOC(=O)OC1=C(c2c(Cl)cc(C)cc2OC)C(=O)OC12CCOCC2` [Ex. I-2-c-3], the “kill rate against Myzus persicae” value (Myzus persicae) is reported as 100%.
For `CCOC(=O)OC1=C(c2c(Cl)cc(C)cc2OC)C(=O)OC12CCCC2` [Ex. I-2-c-1], the “kill rate against Myzus persicae” value (Myzus persicae) was 100%.
